# Reference: ChEMBL document CHEMBL1201862, “PubChem BioAssay data set” (2004)
# Values joined by “and” are separate entries in the source; they are usually repeats but may differ in a detail not shown here. Equal values may be shown once. Active and inactive are the calls of the source.
# Assays:
# [1] = target: Cytochrome P450 3A4 (Homo sapiens, UniProt P08684);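 also: CYP3A4 tested as one member of a cytochrome P450 panel screen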
# [2] = tested on: Streptococcus; experiment: Group A Streptococcus viability loss, dose response, counter-screen for streptokinase expression inhibitor project, luminescence, BacTiterGlo (AID 1915); type: functional, organism-based;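 also: potency for reduction of bacterial viability or growth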
# [3] = target: T1, Streptokinase A (Streptococcus pyogenes serotype M1, UniProt P10520); experiment: S. pyogenes streptokinase expression inhibitors, potency, dose response, plasminogen activation absorbance, OD405 (AID 1914); type: functional, Streptococcus pyogenes M1 GAS;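 also: secreted streptokinase activity via plasminogen activation per viability signal from cell pellet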
# T1 sequence (P10520 whole entry): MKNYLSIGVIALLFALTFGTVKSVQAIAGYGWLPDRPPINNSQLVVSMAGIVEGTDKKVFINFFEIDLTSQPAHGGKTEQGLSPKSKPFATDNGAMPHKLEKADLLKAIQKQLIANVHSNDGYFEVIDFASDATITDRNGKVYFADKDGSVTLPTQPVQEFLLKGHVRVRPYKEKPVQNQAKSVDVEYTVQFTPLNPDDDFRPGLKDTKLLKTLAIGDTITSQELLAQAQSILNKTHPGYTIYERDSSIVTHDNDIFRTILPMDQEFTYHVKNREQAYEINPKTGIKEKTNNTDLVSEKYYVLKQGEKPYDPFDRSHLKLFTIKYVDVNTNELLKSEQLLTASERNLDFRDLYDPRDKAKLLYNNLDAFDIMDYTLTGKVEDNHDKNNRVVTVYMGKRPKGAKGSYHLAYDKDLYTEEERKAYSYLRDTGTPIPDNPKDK
# [4] = tested on: Streptococcus sp. 'group A'; experiment: growth inhibition of control SK(-) GAS strain, dose response, counter-screen for streptokinase expression inhibitor project, luminescence, kanamycin, BacTiterGlo, confirmation (AID 1900); type: functional, organism-based
# [5] = target: Cytochrome P450 2C9 (Homo sapiens, UniProt P11712)
# Cytochrome P450 2C9, sequence (P11712 whole entry): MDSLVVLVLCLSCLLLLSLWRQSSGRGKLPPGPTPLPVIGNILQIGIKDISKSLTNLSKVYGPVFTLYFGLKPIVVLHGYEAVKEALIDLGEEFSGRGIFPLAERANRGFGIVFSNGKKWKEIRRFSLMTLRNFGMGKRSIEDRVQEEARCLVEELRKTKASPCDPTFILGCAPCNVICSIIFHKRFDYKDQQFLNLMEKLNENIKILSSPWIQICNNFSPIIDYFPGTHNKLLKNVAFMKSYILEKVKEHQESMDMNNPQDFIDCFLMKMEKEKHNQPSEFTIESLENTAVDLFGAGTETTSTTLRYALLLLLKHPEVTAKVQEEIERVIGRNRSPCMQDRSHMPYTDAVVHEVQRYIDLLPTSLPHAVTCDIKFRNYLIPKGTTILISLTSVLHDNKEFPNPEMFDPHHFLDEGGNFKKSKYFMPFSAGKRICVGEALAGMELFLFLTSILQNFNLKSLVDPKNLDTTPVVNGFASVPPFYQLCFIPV
# [6] = target: Cytochrome P450 2C19 (Homo sapiens, UniProt P33261); experiment: Cytochrome panel assay with activity outcomes. Panel member name: p450-cyp2c19 Compounds with AC50 equal or less than 10 uM are considered active; type: functional
# Cytochrome P450 2C19, sequence (P33261 whole entry): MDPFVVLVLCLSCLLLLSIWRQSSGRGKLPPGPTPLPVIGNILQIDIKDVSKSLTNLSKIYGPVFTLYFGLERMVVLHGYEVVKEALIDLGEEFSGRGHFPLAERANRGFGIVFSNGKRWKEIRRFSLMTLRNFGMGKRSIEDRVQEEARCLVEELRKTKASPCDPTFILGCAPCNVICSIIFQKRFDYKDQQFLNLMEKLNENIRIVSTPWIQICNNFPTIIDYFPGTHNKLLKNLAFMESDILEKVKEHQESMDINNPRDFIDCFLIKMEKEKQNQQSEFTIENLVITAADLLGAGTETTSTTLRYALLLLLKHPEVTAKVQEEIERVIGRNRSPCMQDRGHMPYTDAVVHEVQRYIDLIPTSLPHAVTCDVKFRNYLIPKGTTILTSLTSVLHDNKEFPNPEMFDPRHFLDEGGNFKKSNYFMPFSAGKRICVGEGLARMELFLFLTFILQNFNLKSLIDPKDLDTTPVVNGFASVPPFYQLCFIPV
# [7] = tested on: INS1; experiment: beta cell apoptosis inhibitors, cytokine rescue, dose response, luminescence, retest (AID 449756); type: functional, cell-based; settings: Rattus norvegicus;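 also: cell death triggered by IL-1 beta plus TNF-alpha plus IFN-gamma mixture; protective hits raise ATP signal compared with cytokine alone wells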
# [8] = target: T2, Rac GTPase-activating protein 1 (Homo sapiens, UniProt Q9H0H5); experiment: MgcRacGAP GTPase-activating activity inhibitors, confirmation, biochemical, ADP Hunter fluorescence, primary and confirmatory (AID 624330); type: functional
# T2 sequence (Q9H0H5 whole entry): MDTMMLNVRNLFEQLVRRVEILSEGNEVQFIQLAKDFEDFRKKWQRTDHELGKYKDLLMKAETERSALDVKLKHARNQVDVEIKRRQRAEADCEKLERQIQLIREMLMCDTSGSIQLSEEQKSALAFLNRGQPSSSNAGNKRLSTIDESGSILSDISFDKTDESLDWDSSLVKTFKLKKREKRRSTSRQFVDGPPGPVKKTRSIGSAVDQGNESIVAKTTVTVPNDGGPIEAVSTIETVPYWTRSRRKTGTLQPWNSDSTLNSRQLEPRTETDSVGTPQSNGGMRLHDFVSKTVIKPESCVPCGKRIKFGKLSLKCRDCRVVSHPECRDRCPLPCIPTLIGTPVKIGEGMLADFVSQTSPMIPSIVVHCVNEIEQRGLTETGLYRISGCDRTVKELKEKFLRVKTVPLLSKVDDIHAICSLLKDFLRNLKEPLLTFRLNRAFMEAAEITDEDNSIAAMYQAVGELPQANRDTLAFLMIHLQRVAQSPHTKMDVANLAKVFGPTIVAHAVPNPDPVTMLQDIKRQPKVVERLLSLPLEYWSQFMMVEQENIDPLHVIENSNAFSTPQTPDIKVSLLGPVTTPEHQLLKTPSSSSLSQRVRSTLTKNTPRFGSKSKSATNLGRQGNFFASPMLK
# [9] = target: T3, Corticotropin-releasing factor receptor 2/Corticotropin-releasing factor-binding protein (Homo sapiens, UniProt P24387+Q13324); experiment: activators of CRF receptor 2 with binding protein – uHTS hits, confirmation (AID 602473); type: functional; settings: read-out: EC50_Mean
# T3 sequence (Q13324 whole entry): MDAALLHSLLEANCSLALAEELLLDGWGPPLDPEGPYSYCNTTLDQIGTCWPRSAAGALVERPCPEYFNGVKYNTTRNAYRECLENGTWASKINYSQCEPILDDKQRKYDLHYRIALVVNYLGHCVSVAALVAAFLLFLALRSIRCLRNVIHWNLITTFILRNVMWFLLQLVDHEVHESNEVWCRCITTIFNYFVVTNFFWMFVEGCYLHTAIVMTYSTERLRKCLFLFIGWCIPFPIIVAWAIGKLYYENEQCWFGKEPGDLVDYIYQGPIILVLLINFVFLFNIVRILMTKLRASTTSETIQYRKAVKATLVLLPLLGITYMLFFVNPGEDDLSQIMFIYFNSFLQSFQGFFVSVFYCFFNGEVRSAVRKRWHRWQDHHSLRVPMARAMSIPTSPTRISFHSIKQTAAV
# T3 sequence (P24387 whole entry): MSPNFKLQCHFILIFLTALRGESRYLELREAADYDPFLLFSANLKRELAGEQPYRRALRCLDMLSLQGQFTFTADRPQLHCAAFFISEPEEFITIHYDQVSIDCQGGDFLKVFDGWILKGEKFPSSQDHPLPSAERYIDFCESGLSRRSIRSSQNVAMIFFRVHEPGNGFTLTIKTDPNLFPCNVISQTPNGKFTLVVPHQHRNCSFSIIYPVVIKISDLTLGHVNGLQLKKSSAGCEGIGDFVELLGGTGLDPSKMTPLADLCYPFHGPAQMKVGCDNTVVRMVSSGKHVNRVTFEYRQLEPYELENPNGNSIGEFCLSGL
# [10] = target: Cytochrome P450 2D6 (Homo sapiens, UniProt P10635)
# Cytochrome P450 2D6, sequence (P10635 whole entry): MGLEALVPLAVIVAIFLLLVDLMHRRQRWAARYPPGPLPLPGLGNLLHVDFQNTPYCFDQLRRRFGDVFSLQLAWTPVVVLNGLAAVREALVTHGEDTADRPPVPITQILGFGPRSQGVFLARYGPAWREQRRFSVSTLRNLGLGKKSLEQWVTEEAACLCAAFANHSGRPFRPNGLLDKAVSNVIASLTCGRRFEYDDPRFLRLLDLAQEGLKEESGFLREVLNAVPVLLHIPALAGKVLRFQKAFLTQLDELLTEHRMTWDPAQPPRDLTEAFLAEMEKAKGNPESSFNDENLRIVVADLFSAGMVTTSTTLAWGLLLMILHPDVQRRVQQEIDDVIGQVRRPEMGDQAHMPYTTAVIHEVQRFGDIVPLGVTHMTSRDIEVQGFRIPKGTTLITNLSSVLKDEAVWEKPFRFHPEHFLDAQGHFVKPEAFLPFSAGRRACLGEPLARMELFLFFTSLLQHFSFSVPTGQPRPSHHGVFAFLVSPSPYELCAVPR
# Cytochrome P450 3A4, sequence (P08684 whole entry): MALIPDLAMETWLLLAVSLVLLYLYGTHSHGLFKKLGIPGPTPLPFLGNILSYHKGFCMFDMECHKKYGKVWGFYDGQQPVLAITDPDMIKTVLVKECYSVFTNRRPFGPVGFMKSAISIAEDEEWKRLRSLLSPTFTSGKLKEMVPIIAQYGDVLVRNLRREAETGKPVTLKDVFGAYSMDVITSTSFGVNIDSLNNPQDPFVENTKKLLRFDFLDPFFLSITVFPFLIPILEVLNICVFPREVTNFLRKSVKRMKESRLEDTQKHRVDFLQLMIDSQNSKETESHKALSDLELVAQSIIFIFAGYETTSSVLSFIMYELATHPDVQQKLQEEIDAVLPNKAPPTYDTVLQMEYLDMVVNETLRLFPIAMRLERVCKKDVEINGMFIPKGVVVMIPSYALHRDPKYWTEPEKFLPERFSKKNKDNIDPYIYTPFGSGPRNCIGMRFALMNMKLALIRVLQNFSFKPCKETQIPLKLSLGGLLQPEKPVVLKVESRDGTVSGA
SMILES,AC50 [1],EC50 [2],EC50 [3],EC50 [4],AC50 [5],also measured
CCCC[P+](CCCC)(CCCC)Cc1ccc(NC(=O)[C@@H](Cc2ccc3ccccc3c2)N=C(NC2CCCCC2)NC2CCCCC2)cc1,25.1 µM (inconclusive),–,–,–,–,–
CCCCNC(=O)c1onc(CSc2ccc(C(C)C)cc2)c1C(=O)O,–,> 150 µM (not active),2.28 µM (active),3.81 µM (active),–,–
COc1ccc2[nH]cc(CCNc3ccnc(-c4ccoc4)n3)c2c1,–,–,–,–,0.794 µM (inconclusive),–
O=c1[nH]c(=S)[nH]nc1Cc1ccccc1,–,–,–,–,39.8 µM (inconclusive),AC50 [6]: inconclusive
O=C(CSc1nnc(NC(=O)c2cccc(F)c2)s1)NCC1CCCO1 (stereo not given),–,> 150 µM (not active),> 150 µM (not active),> 150 µM (not active),–,–
COc1ccc(C2/C=C\CN(C(=O)C3CC3)[C@H](Cc3ccccc3)C(=O)N2Cc2ccc(F)cc2)cc1 (stereo not given in full),–,–,–,–,–,AC50 [7]: 13.5 µM (active)
CN=C(S)NNC(=O)c1sccc1OCc1ccc(C)cc1,15.8 µM (inconclusive),–,–,–,–,–
O=C(Nc1nc(-c2ccccc2)cs1)c1ccc(Br)o1,31.6 µM (inconclusive),–,–,–,11.2 µM (inconclusive),–
CCOP(=O)(Cc1ccc(C(=O)CC)o1)OCC,–,> 150 µM (not active),> 150 µM (not active),> 150 µM (not active),–,–
CC(=O)Nc1ccc(N2C(=O)CSC2c2c(F)cccc2Cl)cc1 (stereo not given),22.4 µM (inconclusive),–,–,–,–,AC50 ([6]; read-out: AC50): 39.8 µM (inconclusive)
CCCCNC(=O)C(=O)NC(C)CCc1ccccc1 (stereo not given),–,–,–,–,17.8 µM (inconclusive),–
COc1cccc([C@@H]2Oc3ccc(Br)cc3C(=O)[C@H]2O)c1,6.31 µM (inconclusive),–,–,–,–,–
CCOC(=O)c1c(-c2ccc(C)o2)csc1NC(=O)COC(=O)c1ccc(NC(N)=O)cc1,–,68 µM (active),49.5 µM (active),1.75 µM (active),–,–
Cc1ccc(NCc2ccco2)cc1C,–,–,–,–,–,IC50 [8]: 123 µM (active)
COc1cc(C[C@H](C)N)c(OC)cc1I,1.58 µM (inconclusive) and 31.6 µM (inconclusive),–,–,–,–,–
CCc1cc2c(COC(=O)c3cccc(NS(C)(=O)=O)c3)cc(=O)oc2cc1O,–,100 µM (active),> 150 µM (not active),6.8 µM (active),–,–
CCCn1nc2cc(C(=O)NCCc3ccc(C)cc3)ccc2c1OCC,–,–,–,–,39.8 µM (inconclusive),–
CCOC(=O)C1CCCN(c2ncnc3c2cnn3-c2ccc(Cl)cc2)C1 (stereo not given),25.1 µM (inconclusive),–,–,–,–,EC50 [9]: > 53 µM (inactive); AC50 ([6]; read-out: AC50): 22.4 µM (inconclusive)
O=C1NC(=O)/C(=C\c2ccc(OCc3ccccc3)cc2)S1,–,> 150 µM (not active),> 50 µM (not active),52.8 µM (active),–,–
Cc1ccc(S(=O)(=O)N2CCCCC2)cc1NC(=O)CN1C(=O)CN(C)C1=O,–,> 150 µM (not active),> 150 µM (not active),> 150 µM (not active),–,–
Cc1cc(N)ccc1NC(=O)c1ccccc1,–,–,–,–,0.0224 µM (inconclusive),AC50 ([6]; read-out: AC50): 20 µM (inconclusive)
CN(C)C(=O)c1ccc(-c2cncnc2-n2ccnc2)cc1,10 µM (inconclusive),–,–,–,–,AC50 [10]: 25.1 µM (inconclusive)
COc1ccc(-c2nc3cnc(OC)nc3n(Cc3cccs3)c2=O)cc1,–,–,–,–,5.01 µM (inconclusive),AC50 [10]: 7.94 µM (inconclusive)
